Columns and labels:
Format in all cases: biochemical
[1] = target: T1, recombinant human baculovirus-expressed FGFR1 cytoplasmic domain (Homo sapiens, UniProt P11362); test: FGFR1 kinase inhibition assay (ELISA-based, time-resolved fluorescence); details: 1 uM compound; 20 μM ATP
T1 construct: recombinant human baculovirus-expressed FGFR1 cytoplasmic domain; host or cells: baculovirus expression system
Description: Inhibition of Fibroblast Growth Factor Receptor-1 (FGFR1) Kinase Activity
The FGFR1 kinase activity was measured using an ELISA-based format in a 96-well FluoroNUNC Maxisorp plate with a time-resolved fluorescence readout as described for trkA kinase. The plate was coated with 100 μl/well of substrate solution (recombinant human PLC-γ/GST) at a concentration of 10 μg/ml in Tris buffered saline (TBS). The FDGFR1 activity was assayed in 100-μl assay micture containing 50 mM HEPES (pH 7.4), 20 μM ATP, 10 mM MnCl2, 0.1% BSA, 2% DMSO, and 15 ng/ml recombinant human baculovirus-expressed FGFR1 cytoplasmic domain (prephosphorylated prior to use). Compounds were screened for inhibition of the FGFR1 kinase activity at a conentration of 1 μM. The kinase reaction was allowed to proceed at 37° C. for 15 minutes. The detection antibody, europium-labeled anti-phosphotyrosine antibody (Wallace #CR04-100), was added at 1:5000 dilution in block buffer (3% BSA in TBST). After a 1-hour incubation at 37° C., 100 μl of enhancement solution (Wallac #1244-105) and the plate was gently agitated. After 5 min, the fluorescence of the resulting solutions measured using the BMG Fluostar (Model # 403).

[2] = target: T2, recombinant human baculovirus-expressed VEGFR1 cytoplasmic domain (Homo sapiens, UniProt P17948); test: VEGFR1 kinase inhibition assay (ELISA-based, time-resolved fluorescence); details: 1 uM compound, 30 μM ATP; for inhibition at 1 µM: read-out: VEGFR-1 kinase % inhibition @ 1 uM
T2 construct: recombinant human baculovirus-expressed VEGFR1 cytoplasmic domain; host or cells: baculovirus expression system
T2 sequence (P17948 781-1338 limits assumed): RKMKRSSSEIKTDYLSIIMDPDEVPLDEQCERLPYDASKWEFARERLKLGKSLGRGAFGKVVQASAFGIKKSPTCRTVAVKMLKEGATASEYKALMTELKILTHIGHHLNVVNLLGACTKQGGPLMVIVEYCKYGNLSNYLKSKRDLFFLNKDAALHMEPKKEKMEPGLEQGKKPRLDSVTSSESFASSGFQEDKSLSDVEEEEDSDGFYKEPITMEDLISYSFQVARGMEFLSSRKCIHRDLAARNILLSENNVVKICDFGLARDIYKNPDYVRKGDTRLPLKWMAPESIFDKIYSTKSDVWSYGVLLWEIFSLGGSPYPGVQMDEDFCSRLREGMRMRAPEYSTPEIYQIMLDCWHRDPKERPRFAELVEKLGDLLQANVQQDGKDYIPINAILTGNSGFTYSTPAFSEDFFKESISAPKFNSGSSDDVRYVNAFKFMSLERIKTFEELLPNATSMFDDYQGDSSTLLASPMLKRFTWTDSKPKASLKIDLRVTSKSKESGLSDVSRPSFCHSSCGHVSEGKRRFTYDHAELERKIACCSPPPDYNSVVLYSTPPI
Description: Inhibition of Vascular Endothelial Growth Factor Receptor-1 Kinase Activity
The VEGFR1 kinase activity assay utilizes an ELISA-based format in a 96-well FluoroNUNC Maxisorp plate with a time-resolved fluorescence readout. The plate was coated with 100 μl/well of substrate solution (recombinant human PLC-γ/GST) at a concentration of 40 μg/ml in Tris buffered saline (TBS). The VEGFR1 activity was assayed in 100-μl assay micture containing 50 mM HEPES (pH 7.4), 30 μM ATP, 10 mM MnCl2, 0.1% BSA, 2% DMSO, and 300 ng/ml prephosphorylated recombinant human baculovirus-expressed VEGFR1 cytoplasmic domain. Compounds were screened for inhibition of the VEGFR1 kinase activity at a concentration of 1 μM. The kinase reaction was allowed to proceed at 37° C. for 15 minutes. The detection antibody, europium-labeled anti-phosphotyrosine antibody (Wallac #CR04-100), was added at 1:5000 dilution in block buffer (3% BSA in TBST). After a 1-hour incubation at 37° C., 100 μl of enhancement solution (Wallac #1244-105) was added and the plate was gently agitated. After 5 min, the fluorescence of the resulting solution was measured using the BMG Fluostar (Model # 403).

baculoviral GST-MLK2KDLZ = target: T3, baculoviral GST-MLK2KDLZ (Homo sapiens, UniProt Q02779); test: Mixed Lineage Kinase-2 inhibition assay (Millipore Multiscreen plate, 32P); details: 1 uM compound, 100 μM ATP; for inhibition at 1 µM: read-out: MLK-2 Kinase % inhibition @ 1 uM
T3 construct: 3 μg/ml of baculoviral GST-MLK2KDLZ; GST (N); host or cells: baculovirus expression system
Description: Inhibition of Mixed Lineage Kinase-2 Activity
Assays were performed using the Millipore Multiscreen plate format as described for MLK1. Each 50-μl assay mixture contained 20 mM Hepes, pH 7, 1 mM EGTA, 10 mM MgCl2, 1 mM DTT, 25 mM β-glycerophosphate, 100 μM ATP, 0.25 μCi [γ-^32P]ATP, 0.1% BSA, 500 μg/ml myelin basic protein (UBI #13-104), 2% DMSO, various concentrations of test compound, and 3 μg/ml of baculoviral GST-MLK2KDLZ. Samples were incubated for 15 min. at 37° C. The reaction was stopped by adding ice cold 50% TCA and the proteins were allowed to precipitate for 30 min at 4° C. The plates were then washed with ice cold 25% TCA Supermix scintillation cocktail was added, and the plates were allowed to equilibrate for 1-2 hours prior to counting.

[3] = target: T4, recombinant human baculoviral VEGFR2 cyctoplasmic domain (Homo sapiens, UniProt P35968); test: VEGFR2 kinase inhibition assay (ELISA-based, time-resolved fluorescence); details: 1 uM compound; 30 μM ATP
T4 construct: recombinant human baculoviral VEGFR2 cyctoplasmic domain; host or cells: baculovirus expression system
Description: Inhibition of Vascular Endothelial Growth Factor Receptor-2 Kinase Activity
Assay were performed as described for trkA kinase below. The 96-well microtiter plate (FluoroNUNC Maxisorp) was coated with 40 μg/ml recombinant human phospholipase C-γ1/glutathione S-transferase fusion protein. Inhibition studies were performed in 100 μl assay mixtures containing 50 mM HEPES, pH 7.4, 30 μM ATP, 10 mM MnCl2, 0.1% BSA, 2% DMSO, and 1 μM of test compound. The reaction was initiated by adding prephosphorylated recombinant human baculoviral VEGFR2 cyctoplasmic domain. The reaction was allowed to proceed for 15 minutes at 37° C. The detection antibody, eurpium-labeled anti-phosphotyrosine antibody (Wallac #CR04-100), was added at 1:5000 dilution in block buffer (3% BSA in TBST).

T3 sequence (Q02779 98-440 limits assumed): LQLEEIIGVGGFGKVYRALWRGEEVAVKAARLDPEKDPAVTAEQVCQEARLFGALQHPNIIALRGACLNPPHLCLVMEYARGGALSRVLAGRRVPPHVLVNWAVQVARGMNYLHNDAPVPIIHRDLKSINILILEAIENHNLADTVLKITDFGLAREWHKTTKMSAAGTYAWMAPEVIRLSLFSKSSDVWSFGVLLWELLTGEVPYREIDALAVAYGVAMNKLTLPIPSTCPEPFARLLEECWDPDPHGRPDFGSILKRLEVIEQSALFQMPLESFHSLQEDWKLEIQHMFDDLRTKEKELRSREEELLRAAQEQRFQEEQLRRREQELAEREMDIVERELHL
T1 sequence (P11362 398-822 limits assumed): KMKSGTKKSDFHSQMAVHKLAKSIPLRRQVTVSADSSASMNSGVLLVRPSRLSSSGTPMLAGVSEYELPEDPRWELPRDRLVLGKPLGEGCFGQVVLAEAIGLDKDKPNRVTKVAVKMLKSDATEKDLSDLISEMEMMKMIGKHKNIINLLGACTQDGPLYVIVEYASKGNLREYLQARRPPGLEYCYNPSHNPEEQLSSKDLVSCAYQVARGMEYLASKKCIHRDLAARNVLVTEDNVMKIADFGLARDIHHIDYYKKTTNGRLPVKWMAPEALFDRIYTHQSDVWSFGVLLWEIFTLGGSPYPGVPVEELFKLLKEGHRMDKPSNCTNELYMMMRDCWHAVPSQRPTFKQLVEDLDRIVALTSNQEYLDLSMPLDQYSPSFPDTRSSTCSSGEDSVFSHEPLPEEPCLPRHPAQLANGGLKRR
T4 sequence (P35968 786-1356 limits assumed): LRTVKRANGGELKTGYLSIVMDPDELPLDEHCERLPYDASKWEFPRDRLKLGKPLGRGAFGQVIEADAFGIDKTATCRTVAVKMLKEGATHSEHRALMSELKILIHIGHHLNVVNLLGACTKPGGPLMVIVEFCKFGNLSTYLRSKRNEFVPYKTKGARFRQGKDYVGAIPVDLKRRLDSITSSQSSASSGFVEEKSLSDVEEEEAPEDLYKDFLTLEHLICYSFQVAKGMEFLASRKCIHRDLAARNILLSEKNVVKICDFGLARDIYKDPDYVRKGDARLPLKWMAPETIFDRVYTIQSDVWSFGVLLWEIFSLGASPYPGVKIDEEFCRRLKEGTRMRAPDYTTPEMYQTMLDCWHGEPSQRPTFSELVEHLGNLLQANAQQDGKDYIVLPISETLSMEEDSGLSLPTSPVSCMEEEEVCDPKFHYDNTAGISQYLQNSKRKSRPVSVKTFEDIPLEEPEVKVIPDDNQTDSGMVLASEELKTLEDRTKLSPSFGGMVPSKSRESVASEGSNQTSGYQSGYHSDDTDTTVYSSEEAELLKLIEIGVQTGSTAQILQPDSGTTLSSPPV

Structure (SMILES) | FGFR1 % inhibition @ 1 uM [1] | VEGFR-1 kinase % inhibition @ 1 uM [2] | MLK-2 Kinase % inhibition @ 1 uM (baculoviral GST-MLK2KDLZ) | VEGFR-2 kinase % inhibition @ 1 uM [3] | inhibition at 1 µM [1] | inhibition at 1 µM [2] | inhibition at 1 µM (baculoviral GST-MLK2KDLZ)
Cc1cc(C)c(C=C2C(=O)NN=C2c2ccoc2)[nH]1 [Compound 1] | 6% | 35% | 7% | – | – | – | –
Cc1cc(C)c(C=C2C(=O)NN=C2C2c3ccccc3Oc3ccccc32)[nH]1 [Compound 2] | 33% | 9% | −10% | 21% | – | – | –
Cc1cc(C)c(C=C2C(=O)NN=C2c2ccncc2)[nH]1 [Compound 3] | 29% | 22% | −1% | 39% | – | – | –
O=C1NN=C(c2ccoc2)C1=CC=C(c1ccccc1)c1ccccc1 [Compound 4] | 20% | 20% | −10% | 33% | – | – | –
CCc1c(C=C2C(=O)NN=C2c2ccoc2)[nH]c(C(=O)OCc2ccccc2)c1C [Compound 5] | −2% | 10% | 9% | −5% | – | – | –
Cc1c(I)[nH]c(C=C2C(=O)NN=C2c2ccoc2)c1I [Compound 6] | 20% | 14% | 6% | 9% | – | – | –
CCOC(=O)CCc1c(C(=O)OCC)[nH]c(C=C2C(=O)NN=C2c2ccoc2)c1CC(=O)OCC [Compound 7] | 28% | 13% | −12% | −3% | – | – | –
Cc1[nH]c(C=C2C(=O)NN=C2c2ccoc2)c(Br)c1Br [Compound 8] | 24% | 21% | 0% | 35% | – | – | –
O=C1NN=C(c2ccoc2)C1=Cc1c[nH]c2ccccc12 [Compound 9] | 17% | 51% | 15% | 49% | – | – | –
Cc1cc(C)c(C=C2C(=O)NN=C2c2cccnc2)[nH]1 [Compound 10] | 14% | 41% | −9% | 64% | – | – | –
COc1ccc2[nH]cc(C=C3C(=O)NN=C3c3ccoc3)c2c1 [Compound 11] | 24% | 23% | 7% | 50% | – | – | –
O=C1NN=C(c2ccoc2)C1=Cc1ccc[nH]1 [Compound 12] | 39% | 29% | −7% | 26% | – | – | –
Cc1nc(C)c(C2=NNC(=O)C2=Cc2c[nH]c3ccccc23)s1 [Compound 13] | 30% | 39% | −17% | 25% | – | – | –
Cc1cc(C)c(C=C2C(=O)NN=C2c2sc(C)nc2C)[nH]1 [Compound 14] | 22% | 8% | −18% | 13% | – | – | –
O=C1NN=C(c2ccoc2)C1=Cc1ncc[nH]1 [Compound 15] | 10% | 12% | −12% | 11% | – | – | –
COC(=O)c1ccc2[nH]cc(C=C3C(=O)NN=C3c3ccoc3)c2c1 [Compound 16] | 1% | 18% | 7% | 34% | – | – | –
O=C1NN=C(c2ccoc2)C1=Cc1c[nH]c2ccc(Cl)cc12 [Compound 17] | 13% | 17% | −8% | 48% | – | – | –
Cc1cc(C)c(C=C2C(=O)NN=C2c2nccs2)[nH]1 [Compound 26, 4-[(3,5-dimethylpyrrol-2-yl)methylene]-3-(1,3-thiazol-2-yl)-2 pyrazolin-5-one] | – | – | – | – | 46% | 64% | -7%
Cn1cc(C=C2C(=O)NN=C2c2nccs2)c2ccccc21 [Compound 60] | 66% | 63% | 9% | – | – | – | –
Cc1cc(C)c(C=C2C(=O)NN=C2c2cnccn2)[nH]1 [Compound 74, 4-[(3,5-dimethylpyrrol-2-yl)methylene]-3-pyrazin-2-yl-2-pyrazolin-5-one] | – | – | – | – | 48% | 74% | 17%

Source: patent US6831075B2, “Heterocyclic substituted pyrazolones” (Cephalon, Inc., priority 1999, dated 2004)
